# According to patent US20250304927A1, “PRO-PEPTIDE VARIANTS FOR MODULATING ACTIVITY OF TRANSGLUTAMINASES” (CURIE CO. INC., priority 2022, published 2025):
# Where no end group is shown, it is not given here.
# Legend:
# [1] = target: T1, thermostable mature transglutaminase variant (SEQ ID NO: 3) (Streptomyces mobaraensis, UniProt P81453); format: biochemical; settings: increase in transglutaminase activity relative to wild-type pro-peptide, casein assay; Method A
# T1 construct: made in house; host or cells: E. coli (lysate)
# Text: Method A. A bicistronic expression vector encoding the wild-type pro-domain of transglutaminase (SEQ ID NO: 2) and a thermostable mature transglutaminase variant (SEQ ID NO: 3) as separate polypeptides was cloned as described in PCT/US20/49226 (WO2021/178001 A1). The vector was used as a template for synthesis of a random mutagenesis library targeting the pro-domain coding sequence to create pro-domain peptide variants.
# Method A. Plasmid libraries containing mature transglutaminase and variant pro-domain peptides were plated on Luria-Bertani (LB) agar plates containing 50 μg/mL of kanamycin. After incubation for at least 16 hours at 37° C., colonies were picked and inoculated into 1 mL of LB broth with 50 μg/mL kanamycin in one well of a 96 deep well culture plate. The plate was covered with a breathable seal and incubated overnight at 37° C. with 400 rpm of shaking. 10 μL of the seed culture was used to inoculate 1 mL of media in a 96 deep well culture plate for expression. The expression plate was allowed to grow for 6-8 hours at 30° C. Expression was then induced by adding isopropyl beta-D-1-thiogalactopyranoside (IPTG) to a final concentration of 1 mM and the temperature was reduced to 20° C. while growth continued for an additional 15 hours. Cells were harvested by centrifugation at 4000 rcf for 30 minutes and pellets were frozen at −80° C.
# A secondary screen was performed to determine initial rate of transglutaminase in the presence of the pro-peptide variants using transglutaminase-catalyzed labeling of casein with dansylcadaverine (e.g., a commercially available kit such as the Transglutaminase Fluorogenic Activity Assay Kit, T036, Zedira, Germany). Transglutaminase activity was monitored by measuring the fluorescence (excitation wavelength 332 nm; emission wavelength 500 nm) using a BioTek Synergy H1 microplate reader. Transglutaminase-catalyzed covalent coupling (crosslinking) of monodansylcadaverine with N,N-dimethylcasein produces a product that causes a shift in intensity and wavelength of fluorescence of the dansyl group now linked to the casein. The relative transglutaminase activity is shown by increase of fluorescence intensity over time. The data were normalized for transglutaminase expression levels in E. coli lysate as described above. Pro-domain variants were identified based on their ability to alter the activity of the mature transglutaminase enzyme. […]
# It is believed that these pro-peptide variants have reduced binding affinity with mature mTgase.
# [2] = target: T2, thermostable variant of Streptomyces mobaraensis transglutaminase (Streptomyces mobaraensis, UniProt P81453 79-407); test: cell-based or functional assay
# T2 sequence: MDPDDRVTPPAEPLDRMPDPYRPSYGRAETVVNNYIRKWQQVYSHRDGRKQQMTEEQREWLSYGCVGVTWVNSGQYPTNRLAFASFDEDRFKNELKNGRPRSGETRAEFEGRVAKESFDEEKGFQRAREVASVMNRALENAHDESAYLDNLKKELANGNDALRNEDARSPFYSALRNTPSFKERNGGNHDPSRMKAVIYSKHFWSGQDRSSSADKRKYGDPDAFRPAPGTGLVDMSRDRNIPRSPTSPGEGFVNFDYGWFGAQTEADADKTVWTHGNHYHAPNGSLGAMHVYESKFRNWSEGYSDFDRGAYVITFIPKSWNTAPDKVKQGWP
# [3] = target: T2, thermostable variant of Streptomyces …; test: cell-based or functional assay; remark: listed apart in the source
Molecule,Reduction in binding affinity of inhibitory peptide relative to WT [1],Reduction in binding affinity of inhibitory peptide relative to WT [2],Improvement in pH responsiveness of inhibitory peptide relative to WT [3]
MDNGAGEETKSYAETYRSTADDVANINALNESAPAASSAGPSFRAP [Variant L18S],>1.2 fold,,
MDNGAGEETRSYAETYRLTADDVANINALNESAPAASSAGPSFRAP [Variant K10R],>1.2 fold,,
MDNGAGEETKYYAETYRLTADDVANINALNESAPAASSAGPSFRAP [Variant S11Y],>1.2 fold,,
MDNGAGEETKS [ΔY12-P46],>1.2 fold,,
MDNGAGEETKSYAGTYRLTADDVANINALNESAPAASSAGPSFRAP [Variant E14G],>1.2 fold,,
MDNGAGEETKSYAETYRLTADRVANINALNESAPAASSAGPSFRAP [Variant D22R],>1.2 fold,,
MDNGAGEETDSYAETYRLTADDVANINALNESAPAASSAGPSFRAP [Variant K10D],>1.2 fold,,
MDNGAGEETKLYAETYRLTADDVANINALNESAPAASSAGPSFRAP [Variant S11L],>1.2 fold,,
MDNGAGEETKSYAVTYRLTADDVANINALNESAPAASSAGPSFRAP [Variant E14V],>1.2 fold,,
MDNGAGEETKSYAETYRLTADDVANINALNESAPAASYAGPSFRAP [Variant S38Y],>1.2 fold,,
MDNGAGEETKSNAETYRLTADDVANINALNESAPAASSAGPSFRAP [Variant Y12N],>1.2 fold,,
MDNGAGEETKSYAETYRLTADYVANINALNESAPAASSAGPSFRAP [Variant D22Y],>1.2 fold,,
MDNGAGEETKSYADTYRLTADDVANINALNESAPAASSAGPSFRAP [Variant E14D],>1.2 fold,,
MDNGAGEETKSYATTYRLTADDVANINALNESAPAASSAGPSFRAP [Variant E14T],>1.2 fold,,
MDNGAGEETKSYAATYRLTADDVANINALNESAPAASSAGPSFRAP [Variant E14A],>1.2 fold,,
MDNGAGEETKSYAETYRLTADQVANINALNESAPAASSAGPSFRAP [Variant D22Q],>1.2 fold,,
MDNGAGEETCSYAETYRLTADDVANINALNESAPAASSAGPSFRAP [Variant K10C],>1.2 fold,,
MDNGAGEETKSGAETYRLTADDVANINALNESAPAASSAGPSFRAP [Variant Y12G],>1.2 fold,,
MDNGAGEETKSPAETYRLTADDVANINALNESAPAASSAGPSFRAP [Variant Y12P],>1.2 fold,,
MDNGAGEETKSYAETYRETADDVANINALNESAPAASSAGPSFRAP [Variant L18E],>1.2 fold,,

Molecule,Reduction in binding affinity of inhibitory peptide relative to WT [1],Reduction in binding affinity of inhibitory peptide relative to WT [2],Improvement in pH responsiveness of inhibitory peptide relative to WT [3]
MDNGAGEETKSYAHTYRLTADDVANINALNESAPAASSAGPSFRAP [Variant E14H],>1.2 fold,,
MDNGAGEYTKSYAETYRLTADDVANINALNESAPAASSAGPSFRAP [Variant E8Y],>1.2 fold,,
MDNGAGEETKSYAETYRLTADDVANINALNESAPAASDAGPSFRAP [Variant S38D],>1.2 fold,,
MDNGAGEETKGYAETYRLTADDVANINALNESAPAASSAGPSFRAP [Variant S11G],>5 fold,,
MDNGAGEETKSYAETYRLTADDVANANALNESAPAASSAGPSFRAP [Variant I26A],>1.2 fold,,
MDNGAGEETKHYAETYRLTADDVANINALNESAPAASSAGPSFRAP [Variant S11H],>1.2 fold,,
MDNGAGEETKKYAETYRLTADDVANINALNESAPAASSAGPSFRAP [Variant S11K],>1.2 fold,,
MDNGAGEETKSYAETYRLTADPVANINALNESAPAASSAGPSFRAP [Variant D22P],>1.2 fold,,
MDNGAGEETKSYAETYRLTADGVANINALNESAPAASSAGPSFRAP [Variant D22G],>1.2 fold,,
MDNGAGEETKSYANTYRLTADDVANINALNESAPAASSAGPSFRAP [Variant E14N],>1.2 fold,,
MDNGAGEETKSYATTYRLTADDVANINALNESAPAASSAGPSFRAP [pro-peptide variant E14T],,> 1.2 fold,> 1.2 fold
MDNGAGEETKSYAETYRLTADDVHNINALNESAPAASSAGPSFRAP [pro-peptide variant A24H],,> 1.2 fold,> 5 fold
MDNGAGEETKSYAETYRLTALDVANINALNESAPAASSAGPSFRAP [pro-peptide variant D21L],,> 5 fold,> 1.2 fold
MDNGAGEETKSYAETYRKTADDVANINALNESAPAASSAGPSFRAP [pro-peptide variant L18K],,> 1.2 fold,> 1.2 fold
MDNGAGEETKSYAETYRLTARDVANINALNESAPAASSAGPSFRAP [pro-peptide variant D21R],,> 5 fold,> 1.2 fold
MDNGAGEETKSYAVTYRLTADDVANINALNESAPAASSAGPSFRAP [pro-peptide variant E14V],,> 1.2 fold,> 1.2 fold
MDNGAGEETKSYAETYRLTADGVANINALNESAPAASSAGPSFRAP [pro-peptide variant D22G],,> 1.2 fold,> 1.2 fold
MDNGAGEETKSYAETYRWTADDVANINALNESAPAASSAGPSFRAP [pro-peptide variant L18W],,> 1.2 fold,> 1.2 fold
MDNGAGEETKSYAETYRLTADDVANYNALNESAPAASSAGPSFRAP [pro-peptide variant I26Y],,> 1.2 fold,> 1.2 fold
